pIC50: −log10 of the molar value.
Key:
MNK1 = MNK1 (Homo sapiens (Human), UniProt Q9BUB5); test: MNK Biochemical Enzymatic Assay (ADP-Glo), MNK1 binding assay
Procedure: MNK Biochemical Enzymatic Assay. This protocol establishes the binding assays for MNK1 and MNK2 using ADP-Glo assay. MNK phosphorylates the substrate and converts ATP to ADP, which was detected by Envision and used to reflect the reminding activity of MNK. Reagents and equipment used in the assay are listed below, followed by the protocol.
• a) Add 50 μL compound to 384-well dilution plate • b) Dilute compound 1:3 in succession in DMSO for each column for 10+0 pts (refer to dilution plate map) • c) Transfer 0.1 μL diluted compound solution in each row to 384 assay plate using Echo, each column containing 2 replicates (refer to assay plate map) • d) Add 5 μL enzyme working solution to 384-well assay plate, centrifuge 1000 RPM for 1 min • e) Incubate at 25° C. for 15 min • f) Add 5 μL substrate working solution to initiate reaction • g) Incubate at 25° C. for 60 min • h) Add 10 μL ADP Glo reagent, centrifuge 1000 RPM for 1 min • i) Incubate at 25° C. for 60 min • j) Add 20 μL kinase detection reagent, centrifuge 1000 RPM for 1 min • k) Incubate at 25° C. for 60 min • l) Read on Envision for US LUM as RLU • m) Data analysis: IC50s were determined based on a non-linear regression analysis of data collected.

MNK2 = MNK2 (Homo sapiens (Human), UniProt Q9HBH9); test: MNK Biochemical Enzymatic Assay (ADP-Glo), MNK2 binding assay
Summary of the method: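 Human MNK1 or MNK2 was preincubated with a 10-point, 1:3 serial dilution of compound for 15 min at 25 °C. Substrate was then added and the reaction ran 60 min at 25 °C. ADP formed was read by ADP-Glo luminescence, and IC50 came from non-linear regression.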

TMD-8 cell p-IF4E = test: p-eIF4E Signaling Cellular Assay (CisBio HTRF) in TMD-8 cells; format: cell-based; details: Homo sapiens, TMD8, 40 min, 40 min treatment
Procedure: p-eIF4E Signaling Cellular Assay. Phosphorylated eIF4E is assayed using the CisBio p-Eif4E HTRF assay kit. Reagents and equipment used in the assay are listed below, followed by the protocol.
Cell medium: RPMI 1640+10% FBS+1*PS, TMD-8 were cultured as recommended and assayed in exponential growth phase. • a) Plate 30 μL of cells in 384 white assay plate in appropriate medium and proper cell density (20 k/well) based on Optimization at 37° C. under 5% CO2 atmosphere • b) Dispense 90 nL of compounds diluted in DMSO and treat for 40 min at 37° C. under 5% CO2 atmosphere • c) Remove cell supernatant by flicking the plate • d) Add 16 μL of supplemented lysis buffer (1×) for 30 minutes at RT under shaking • e) Add 4 μL of premixed antibody solutions prepared in the detection buffer. Cover the plate with a plate sealer. Incubate 0/N at RT • f) Read the fluorescence emission at 665 nm and 620 nm on Envision • g) Data analysis • (1) Ratio […] signal is calculated for each well • (2) % Inhibition is calculated as follow:
% inhibition=100−(Signalcmpd-SignalAve_PC)/(SignalAve_VC-SignalAve_PC)×100. • (3) Calculate IC50 and Plot effect-dose curve of cmpds:
Calculate IC50 by fitting % Inhibition values and log of compound concentrations to nonlinear regression (dose response−variable slope) with Graphpad 8.0.
Y=Bottom+(Top−Bottom)/(1+10^((Log IC50−X)*Hill Slope)) • X: log of Inhibitor concentration; Y: % Inhibition.

Sequence of MNK2 (Q9HBH9 whole entry): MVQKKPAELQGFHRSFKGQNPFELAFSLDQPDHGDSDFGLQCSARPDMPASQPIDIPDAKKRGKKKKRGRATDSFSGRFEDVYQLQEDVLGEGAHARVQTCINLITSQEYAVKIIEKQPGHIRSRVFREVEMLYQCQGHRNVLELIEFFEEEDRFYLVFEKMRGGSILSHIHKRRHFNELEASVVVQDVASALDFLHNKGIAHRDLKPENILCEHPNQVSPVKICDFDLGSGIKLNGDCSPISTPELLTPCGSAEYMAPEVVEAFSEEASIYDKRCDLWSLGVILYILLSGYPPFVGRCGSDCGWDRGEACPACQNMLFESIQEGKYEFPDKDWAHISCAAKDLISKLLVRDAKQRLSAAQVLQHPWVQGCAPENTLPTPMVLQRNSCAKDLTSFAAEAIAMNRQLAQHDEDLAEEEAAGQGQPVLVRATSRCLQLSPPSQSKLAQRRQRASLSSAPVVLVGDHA
Sequence of MNK1 (Q9BUB5 other isoform, or with tags, fused parts or gaps isoform Q9BUB5-2): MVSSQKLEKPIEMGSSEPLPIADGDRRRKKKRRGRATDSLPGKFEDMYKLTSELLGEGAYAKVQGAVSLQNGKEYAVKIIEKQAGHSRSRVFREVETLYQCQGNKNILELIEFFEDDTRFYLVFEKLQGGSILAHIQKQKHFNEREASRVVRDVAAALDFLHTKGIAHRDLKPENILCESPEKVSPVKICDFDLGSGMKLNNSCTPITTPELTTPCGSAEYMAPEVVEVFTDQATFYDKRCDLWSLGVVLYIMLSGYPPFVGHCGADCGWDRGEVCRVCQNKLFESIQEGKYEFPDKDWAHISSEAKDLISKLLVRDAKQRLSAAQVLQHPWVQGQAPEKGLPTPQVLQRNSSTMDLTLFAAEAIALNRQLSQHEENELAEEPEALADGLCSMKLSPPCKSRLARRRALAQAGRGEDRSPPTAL

SMILES	pIC50 (MNK1)	pIC50 (MNK2)	pIC50 (TMD-8 cell p-IF4E)
Nc1cc(Nc2c3c(c4n(c2=O)C2(CCCCC2)NC4=O)CCC3)ncn1 [Compound I, 6′-((6-Aminopyrimidin-4-yl)amino)-8′,9′-dihydrospiro[cyclohexane-1,3′-cyclopenta[c]imidazo[1,5-a]pyridine]-1′,5′(2′H,7′H)-dione]	< 6.00	< 6.00	
Cc1cc(Nc2cc(NC(=O)C3CCCO3)ncn2)[n+]([O-])c2c1C(=O)NC21CCCCC1 (stereo not shown) [Compound XXIX-AW, 4′-methyl-5′-oxo-2′-((6-(tetrahydrofuran-2-carboxamido)pyrimidin-4-yl)amino)-5′,6′-dihydrospiro[cyclohexane-1,7′-pyrrolo[3,4-b]pyridine] 1′-oxide]		8.00 to 10.00	7.00 to 8.00
Cc1cc(Nc2cc(Nc3ccccn3)ncn2)[n+]([O-])c2c1C(=O)NC21CCCCC1 [Compound XXIX-D, 4′-methyl-5′-oxo-2′-((6-(pyridin-2-ylamino)pyrimidin-4-yl)amino)-5′,6′-dihydrospiro[cyclohexane-1,7′-pyrrolo[3,4-b]pyridine] 1′-oxide]		8.00 to 10.00	8.00 to 10.00
Cc1cc(Nc2cc(Nc3ccn(C)n3)ncn2)[n+]([O-])c2c1C(=O)NC21CCCCC1 [Compound XXIX-K, 4′-methyl-2′-((6-((1-methyl-1H-pyrazol-3-yl)amino)pyrimidin-4-yl)amino)-5′-oxo-5′,6′-dihydrospiro[cyclohexane-1,7′-pyrrolo[3,4-b]pyridine] 1′-oxide]		8.00 to 10.00	8.00 to 10.00
COc1c(N)ncnc1Nc1cc(C)c2c([n+]1[O-])C1(CCCCC1)NC2=O [Compound XXIX-Z, 2′-((6-amino-5-methoxypyrimidin-4-yl)amino)-4′-methyl-5′-oxo-5′,6′-dihydrospiro[cyclohexane-1,7′-pyrrolo[3,4-b]pyridine] 1′-oxide]		8.00 to 10.00	8.00 to 10.00
CN(C)[C@H]1CCN(C(=O)C2CCc3c(sc4ncnc(Nc5cc6c(s5)C(=O)NC65CCCCC5)c34)C2)C1 (stereo partly drawn) [Compound XXV, 2′-((7-((S)-3-(Dimethylamino)pyrrolidine-1-carbonyl)-5,6,7,8-tetrahydrobenzo[4,5]thieno[2,3-d]pyrimidin-4-yl)amino)spiro[cyclohexane-1,4′-thieno[2,3-c]pyrrol]-6′(5′H)-one]		7.00 to 8.00	6.00 to 7.00
C[C@@H]1COCCN1C(=O)C1CCc2c(sc3ncnc(Nc4cc5c(s4)C(=O)NC54CCCCC4)c23)C1 (stereo partly drawn) [Compound XXV-C, 2′-((7-((R)-3-Methylmorpholine-4-carbonyl)-5,6,7,8-tetrahydrobenzo[4,5]thieno[2,3-d]pyrimidin-4-yl)amino)spiro[cyclohexane-1,4′-thieno[2,3-c]pyrrol]-6′(5′H)-one]		7.00 to 8.00	6.00 to 7.00
O=C1NC2(CCCCC2)c2nc(Nc3cc(N[C@H]4CCOC4)ncn3)sc21 [Compound XXVIII, (S)-2′-((6-((tetrahydrofuran-3-yl)amino)pyrimidin-4-yl)amino)spiro[cyclohexane-1,4′-pyrrolo[3,4-d]thiazol]-6′(5′H)-one]		8.00 to 10.00	7.00 to 8.00
O=C1NC2(CCCCC2)c2nc(Nc3ncnc4[nH]ccc34)sc21 [Compound XXVIII-A, 2′-((7H-pyrrolo[2,3-d]pyrimidin-4-yl)amino)spiro[cyclohexane-1,4′-pyrrolo[3,4-d]thiazol]-6′(5′H)-one]		8.00 to 10.00	8.00 to 10.00
O=C1NC2(CCCCC2)c2nc(Nc3cc(Nc4ccccn4)ncn3)sc21 [Compound XXVIII-B, 2′-((6-(pyridin-2-ylamino)pyrimidin-4-yl)amino)spiro[cyclohexane-1,4′-pyrrolo[3,4-d]thiazol]-6′(5′H)-one]		8.00 to 10.00	7.00 to 8.00
O=C1NC2(CCCCC2)c2nc(Nc3cc(NC(=O)C4CCCC4)ncn3)sc21 [Compound XXVIII-C, N-(6-((6′-oxo-5′,6′-dihydrospiro[cyclohexane-1,4′-pyrrolo[3,4-d]thiazol]-2′-yl)amino)pyrimidin-4-yl)cyclopentanecarboxamide]		8.00 to 10.00	7.00 to 8.00
COc1c(N)ncnc1Nc1nc2c(s1)C(=O)NC21CCCCC1 [Compound XXVIII-G, 2′-((6-amino-5-methoxypyrimidin-4-yl)amino)spiro[cyclohexane-1,4′-pyrrolo[3,4-d]thiazol]-6′(5′H)-one]		8.00 to 10.00	7.00 to 8.00
O=C1NC2(CCCCC2)c2nc(Nc3ccnc(N[C@H]4CCOC4)c3)sc21 [Compound XXVIII-H, (S)-2′-((2-((tetrahydrofuran-3-yl)amino)pyridin-4-yl)amino)spiro[cyclohexane-1,4′-pyrrolo[3,4-d]thiazol]-6′(5′H)-one]		8.00 to 10.00	7.00 to 8.00
Cn1cnc(Nc2cc(Nc3nc4c(s3)C(=O)NC43CCCCC3)ncn2)n1 [Compound XXVIII-K, 2′-((6-((1-methyl-1H-1,2,4-triazol-3-yl)amino)pyrimidin-4-yl)amino)spiro[cyclohexane-1,4′-pyrrolo[3,4-d]thiazol]-6′(5′H)-one]		8.00 to 10.00	7.00 to 8.00
CNC(=O)Nc1cc(Nc2nc3c(s2)C(=O)NC32CCCCC2)ncn1 [Compound XXVIII-L, 1-methyl-3-(6-((6′-oxo-5′,6′-dihydrospiro[cyclohexane-1,4′-pyrrolo[3,4-d]thiazol]-2′-yl)amino)pyrimidin-4-yl)urea]		8.00 to 10.00	6.00 to 7.00
Cn1ccc(Nc2cc(Nc3nc4c(s3)C(=O)NC43CCCCC3)ncn2)n1 [Compound XXVIII-M, 2′-((6-((1-methyl-1H-pyrazol-3-yl)amino)pyrimidin-4-yl)amino)spiro[cyclohexane-1,4′-pyrrolo[3,4-d]thiazol]-6′(5′H)-one]		8.00 to 10.00	8.00 to 10.00
O=C1NC2(CCCCC2)c2nc(Nc3cc(N[C@H]4C[C@@H](O)C4)ncn3)sc21 [Compound XXVIII-O, Cis-2′-((6-(((1s,3s)-3-hydroxycyclobutyl)amino)pyrimidin-4-yl)amino)spiro[cyclohexane-1,4′-pyrrolo[3,4-d]thiazol]-6′(5′H)-one]		8.00 to 10.00	6.00 to 7.00
CC(=O)N(C)c1ccnc(Nc2cc(Nc3nc4c(s3)C(=O)NC43CCCCC3)ncn2)c1 [Compound XXVIII-P, N-methyl-N-(2-((6-((6′-oxo-5′,6′-dihydrospiro[cyclohexane-1,4′-pyrrolo[3,4-d]thiazol]-2′-yl)amino)pyrimidin-4-yl)amino)pyridin-4-yl)acetamide]		8.00 to 10.00	7.00 to 8.00
O=C1NC2(CCCCC2)c2nc(Nc3cc(Nc4ccc(N5CCOCC5)cn4)ncn3)sc21 [Compound XXVIII-Q, 2′-((6-((5-morpholinopyridin-2-yl)amino)pyrimidin-4-yl)amino)spiro[cyclohexane-1,4′-pyrrolo[3,4-d]thiazol]-6′(5′H)-one]		8.00 to 10.00	8.00 to 10.00
CN1CCN(c2ccc(Nc3cc(Nc4nc5c(s4)C(=O)NC54CCCCC4)ncn3)nc2)CC1 [Compound XXVIII-R, 2′-((6-((5-(4-methylpiperazin-1-yl)pyridin-2-yl)amino)pyrimidin-4-yl)amino)spiro [cyclohexane-1,4′-pyrrolo[3,4-d]thiazol]-6′(5′H)-one]		8.00 to 10.00	8.00 to 10.00
O=C1NC2(CCCCC2)c2cc(Nc3ncnc4c3CCN4)sc21 [Compound XXXI, 2′-((6,7-dihydro-5H-pyrrolo[2,3-d]pyrimidin-4-yl)amino)spiro[cyclohexane-1,4′-thieno[2,3-c]pyrrol]-6′(5′H)-one]		8.00 to 10.00	6.00 to 7.00
O=C1NC2(CCCCC2)c2cc(Nc3ncnc4[nH]c(C5CC5)cc34)sc21 [Compound XXXI-A, 2′-((6-cyclopropyl-7H-pyrrolo[2,3-d]pyrimidin-4-yl)amino)spiro[cyclohexane-1,4′-thieno[2,3-c]pyrrol]-6′(5′H)-one]		8.00 to 10.00	8.00 to 10.00
Cn1cnc(Nc2cc(Nc3cc4c(s3)C(=O)NC43CCCCC3)ncn2)c1 [Compound XXXI-B, 2′-((6-((1-methyl-1H-imidazol-4-yl)amino)pyrimidin-4-yl)amino)spiro[cyclohexane-1,4′-thieno[2,3-c]pyrrol]-6′(5′H)-one]		7.00 to 8.00	6.00 to 7.00

Source: US20240092799A1, “MNK INHIBITORS” (Hepagene Therapeutics (HK) Limited, priority 2020, published 2024)
